System: Puccinia triticina; Synonym: Puccinia recondite f. Sp. Tritici
Assay: Wheat Brown Rust (PUCCRT) disease control
Format: in vivo
Conditions: Puccinia triticina, topical, 24 h, 1 Day Protectant, rate 100 ppm; read-out: PUCCRT 1 DP disease control
Procedure: (§1) Technical grades of materials were dissolved in acetone, which were then mixed with nine volumes of water containing 110 ppm Triton X-100. The fungicide solutions were applied onto wheat seedlings using an automated booth sprayer to run-off. All sprayed plants were allowed to air dry prior to further handling. All fungicides were evaluated using the aforementioned method for their activity vs. all target diseases. Wheat leaf blotch and brown rust activity were also evaluated using track spray applications, in which case the fungicides were formulated as EC formulations, containing 0.1% Trycol 5941 in the spray solutions. Wheat plants (variety Yuma) were grown from seed in a greenhouse in 50% mineral soil/50% soil-less Metro mix until the first leaf was fully emerged, with 7-10 seedlings per pot. These plants were inoculated with an aqueous spore suspension of Septoria tritici either prior to or after fungicide treatments. After inoculation the plants were kept in 100% relative humidity (one day in a dark dew chamber followed by two to three days in a lighted dew chamber at 20° C.) to permit spores to germinate and infect the leaf. The plants were then transferred to a greenhouse set at 20° C. for disease to develop. When disease symptoms were fully expressed on the 1st leaves of untreated plants, infection levels were assessed on a scale of 0 to 100 percent disease severity. Percent disease control was calculated using the ratio of disease severity on treated plants relative to untreated plants. Wheat plants (variety Yuma) were grown from seed in a greenhouse in 50% mineral soil/50% soil-less Metro mix until the first leaf was fully emerged, with 7-10 seedlings per pot. These plants were inoculated with an aqueous spore suspension of Puccinia triticina either prior to or after fungicide treatments. After inoculation the plants were kept in a dark dew room at 22° C. with 100% relative humidity overnight to permit spores to germinate and infect the leaf. The plants were then transferred to a greenhouse set at 24° C. for disease to develop. Fungicide formulation, application and disease assessment followed the procedures as described in the Example A.

Question: Which pest or weed control at 100 ppm does the source give for `COc1ccnc(C(=O)N[C@H]2CCC[C@H](CCOCC3CC3)[C@@H](OCC3CC3)[C@H](C)OC2=O)c1OCOC(C)=O` [Compound F140] here?
Answer: The pest or weed control at 100 ppm was 80 to 100%.

Question: With `COc1ccnc(C(=O)N[C@H]2CCC[C@H](Cc3ccc(F)cc3F)[C@@H](OCCCc3ccccc3)[C@H](C)OC2=O)c1O` [Compound F56] as the molecule, how does the pest or weed control at 100 ppm read?
Answer: Its pest or weed control at 100 ppm is 80 to 100%.

Question: `CCOCC(=O)OCOc1c(OC)ccnc1C(=O)N[C@H]1CCC[C@H](CCC(C)C)[C@@H](OCCCC(F)(F)F)[C@H](C)OC1=O` [Compound F162] was tested. Which pest or weed control at 100 ppm did it give?
Answer: Its pest or weed control at 100 ppm is 80 to 100%.

Question: Which pest or weed control at 100 ppm does the source give for `COc1ccnc(C(=O)N[C@H]2CCC[C@@H]3CCO[C@H]3[C@H](C)OC2=O)c1OCOC(C)=O` [Compound F143] here?
Answer: Its pest or weed control at 100 ppm is 80 to 100%.

Question: `COc1ccnc(C(=O)N[C@H]2CCC[C@H](CCSC)[C@@H](OCC(C)C)[C@H](C)OC2=O)c1OCOC(C)=O` [Compound F131] was tested. Which pest or weed control at 100 ppm did it give?
Answer: Its pest or weed control at 100 ppm is 80 to 100%.

Same assay, conditions: Puccinia triticina, topical, 24 h, 1 Day Protectant, rate 121.5 g/H; read-out: PUCCRT 1 DP disease control

Question: How did the pest or weed control at 121.5 g/ha turn out when `COc1ccnc(C(=O)N[C@H]2CCC[C@H](CCOCC3CC3)[C@@H](OCC3CC3)[C@H](C)OC2=O)c1OCOC(C)=O` [Compound F140] was run?
Answer: The pest or weed control at 121.5 g/ha was 80 to 100%.

Question: With `CCOCC(=O)OCOc1c(OC)ccnc1C(=O)N[C@H]1CCC[C@H](CCC(C)C)[C@@H](OCCCC(F)(F)F)[C@H](C)OC1=O` [Compound F162] as the molecule, how does the pest or weed control at 121.5 g/ha read?
Answer: Its pest or weed control at 121.5 g/ha is 80 to 100%.

Question: For `COc1ccnc(C(=O)N[C@H]2CCC[C@@H]3CCO[C@H]3[C@H](C)OC2=O)c1OCOC(C)=O` [Compound F143], which pest or weed control at 121.5 g/ha is on record?
Answer: The pest or weed control at 121.5 g/ha was 80 to 100%.

Question: Which pest or weed control at 121.5 g/ha does the source give for `COc1ccnc(C(=O)N[C@H]2CCC[C@H](CCSC)[C@@H](OCC(C)C)[C@H](C)OC2=O)c1OCOC(C)=O` [Compound F131] here?
Answer: The pest or weed control at 121.5 g/ha was 80 to 100%.

Same assay, conditions: Puccinia triticina, topical, 72 h, 3 Day Curative, rate 100 ppm; read-out: PUCCRT 3 DC disease control

Question: With `COc1ccnc(C(=O)N[C@H]2CCC[C@H](CCOCC3CC3)[C@@H](OCC3CC3)[C@H](C)OC2=O)c1OCOC(C)=O` [Compound F140] as the molecule, how does the pest or weed control at 100 ppm read?
Answer: The pest or weed control at 100 ppm was 80 to 100%.

Question: With `COc1ccnc(C(=O)N[C@H]2CCC[C@H](Cc3ccc(F)cc3F)[C@@H](OCCCc3ccccc3)[C@H](C)OC2=O)c1O` [Compound F56] as the molecule, how does the pest or weed control at 100 ppm read?
Answer: The pest or weed control at 100 ppm was 0 to 80%.

Question: For `CCOCC(=O)OCOc1c(OC)ccnc1C(=O)N[C@H]1CCC[C@H](CCC(C)C)[C@@H](OCCCC(F)(F)F)[C@H](C)OC1=O` [Compound F162], which pest or weed control at 100 ppm is on record?
Answer: Its pest or weed control at 100 ppm is 80 to 100%.

Question: With `COc1ccnc(C(=O)N[C@H]2CCC[C@@H]3CCO[C@H]3[C@H](C)OC2=O)c1OCOC(C)=O` [Compound F143] as the molecule, how does the pest or weed control at 100 ppm read?
Answer: The pest or weed control at 100 ppm was 80 to 100%.

Question: Which pest or weed control at 100 ppm does the source give for `COc1ccnc(C(=O)N[C@H]2CCC[C@H](CCSC)[C@@H](OCC(C)C)[C@H](C)OC2=O)c1OCOC(C)=O` [Compound F131] here?
Answer: The pest or weed control at 100 ppm was 80 to 100%.

Same assay, conditions: Puccinia triticina, topical, 72 h, 3 Day Curative, rate 121.5 g/H; read-out: PUCCRT 3 DC disease control

Question: Which pest or weed control at 121.5 g/ha does the source give for `COc1ccnc(C(=O)N[C@H]2CCC[C@H](CCOCC3CC3)[C@@H](OCC3CC3)[C@H](C)OC2=O)c1OCOC(C)=O` [Compound F140] here?
Answer: The pest or weed control at 121.5 g/ha was 80 to 100%.

Question: `CCOCC(=O)OCOc1c(OC)ccnc1C(=O)N[C@H]1CCC[C@H](CCC(C)C)[C@@H](OCCCC(F)(F)F)[C@H](C)OC1=O` [Compound F162] was tested. Which pest or weed control at 121.5 g/ha did it give?
Answer: The pest or weed control at 121.5 g/ha was 0 to 80%.

Question: `COc1ccnc(C(=O)N[C@H]2CCC[C@@H]3CCO[C@H]3[C@H](C)OC2=O)c1OCOC(C)=O` [Compound F143] was tested. Which pest or weed control at 121.5 g/ha did it give?
Answer: The pest or weed control at 121.5 g/ha was 80 to 100%.

Question: For `COc1ccnc(C(=O)N[C@H]2CCC[C@H](CCSC)[C@@H](OCC(C)C)[C@H](C)OC2=O)c1OCOC(C)=O` [Compound F131], which pest or weed control at 121.5 g/ha is on record?
Answer: Its pest or weed control at 121.5 g/ha is 80 to 100%.

System: Mycosphaerella graminicola; Anamorph: Septoria tritici
Assay: Leaf Blotch of Wheat (SEPTTR) disease control
Format: in vivo
Conditions: Zymoseptoria tritici, 24 h, 1 Day Protectant, rate 100 ppm; read-out: SEPTTR 1 DP disease control
Procedure: as §1, with “plants.” for “plants. Wheat plants (variety Yuma) were grown from seed in a greenhouse in 50% mineral soil/50% soil-less Metro mix until the first leaf was fully emerged, with 7-10 seedlings per pot. These plants were inoculated with an aqueous spore suspension of Puccinia triticina either prior to or after fungicide treatments. After inoculation the plants were kept in a dark dew room at 22° C. with 100% relative humidity overnight to permit spores to germinate and infect the leaf. The plants were then transferred to a greenhouse set at 24° C. for disease to develop. Fungicide formulation, application and disease assessment followed the procedures as described in the Example A.”

Question: With `COc1ccnc(C(=O)N[C@H]2CCC[C@H](CCOCC3CC3)[C@@H](OCC3CC3)[C@H](C)OC2=O)c1OCOC(C)=O` [Compound F140] as the molecule, how does the pest or weed control at 100 ppm read?
Answer: The pest or weed control at 100 ppm was 80 to 100%.

Question: How did the pest or weed control at 100 ppm turn out when `COc1ccnc(C(=O)N[C@H]2CCC[C@H](Cc3ccc(F)cc3F)[C@@H](OCCCc3ccccc3)[C@H](C)OC2=O)c1O` [Compound F56] was run?
Answer: Its pest or weed control at 100 ppm is 80 to 100%.

Question: `CCOCC(=O)OCOc1c(OC)ccnc1C(=O)N[C@H]1CCC[C@H](CCC(C)C)[C@@H](OCCCC(F)(F)F)[C@H](C)OC1=O` [Compound F162] was tested. Which pest or weed control at 100 ppm did it give?
Answer: Its pest or weed control at 100 ppm is 80 to 100%.

Question: `COc1ccnc(C(=O)N[C@H]2CCC[C@@H]3CCO[C@H]3[C@H](C)OC2=O)c1OCOC(C)=O` [Compound F143] was tested. Which pest or weed control at 100 ppm did it give?
Answer: Its pest or weed control at 100 ppm is 0 to 80%.

Question: How did the pest or weed control at 100 ppm turn out when `COc1ccnc(C(=O)N[C@H]2CCC[C@H](CCSC)[C@@H](OCC(C)C)[C@H](C)OC2=O)c1OCOC(C)=O` [Compound F131] was run?
Answer: The pest or weed control at 100 ppm was 80 to 100%.

Same assay, conditions: Zymoseptoria tritici, 24 h, 1 Day Protectant, rate 121.5 g/H; read-out: SEPTTR 1 DP disease control

Question: How did the pest or weed control at 121.5 g/ha turn out when `COc1ccnc(C(=O)N[C@H]2CCC[C@H](CCOCC3CC3)[C@@H](OCC3CC3)[C@H](C)OC2=O)c1OCOC(C)=O` [Compound F140] was run?
Answer: Its pest or weed control at 121.5 g/ha is 0 to 80%.

Question: Which pest or weed control at 121.5 g/ha does the source give for `CCOCC(=O)OCOc1c(OC)ccnc1C(=O)N[C@H]1CCC[C@H](CCC(C)C)[C@@H](OCCCC(F)(F)F)[C@H](C)OC1=O` [Compound F162] here?
Answer: The pest or weed control at 121.5 g/ha was 80 to 100%.

Question: With `COc1ccnc(C(=O)N[C@H]2CCC[C@@H]3CCO[C@H]3[C@H](C)OC2=O)c1OCOC(C)=O` [Compound F143] as the molecule, how does the pest or weed control at 121.5 g/ha read?
Answer: The pest or weed control at 121.5 g/ha was 0 to 80%.

Question: For `COc1ccnc(C(=O)N[C@H]2CCC[C@H](CCSC)[C@@H](OCC(C)C)[C@H](C)OC2=O)c1OCOC(C)=O` [Compound F131], which pest or weed control at 121.5 g/ha is on record?
Answer: Its pest or weed control at 121.5 g/ha is 0 to 80%.

Same assay, conditions: Zymoseptoria tritici, 72 h, 3 Day Curative, rate 100 ppm; read-out: SEPTTR 3 DC disease control

Question: `COc1ccnc(C(=O)N[C@H]2CCC[C@H](CCOCC3CC3)[C@@H](OCC3CC3)[C@H](C)OC2=O)c1OCOC(C)=O` [Compound F140] was tested. Which pest or weed control at 100 ppm did it give?
Answer: Its pest or weed control at 100 ppm is 0 to 80%.

Question: How did the pest or weed control at 100 ppm turn out when `COc1ccnc(C(=O)N[C@H]2CCC[C@H](Cc3ccc(F)cc3F)[C@@H](OCCCc3ccccc3)[C@H](C)OC2=O)c1O` [Compound F56] was run?
Answer: The pest or weed control at 100 ppm was 0 to 80%.

Question: How did the pest or weed control at 100 ppm turn out when `CCOCC(=O)OCOc1c(OC)ccnc1C(=O)N[C@H]1CCC[C@H](CCC(C)C)[C@@H](OCCCC(F)(F)F)[C@H](C)OC1=O` [Compound F162] was run?
Answer: Its pest or weed control at 100 ppm is 80 to 100%.

Question: How did the pest or weed control at 100 ppm turn out when `COc1ccnc(C(=O)N[C@H]2CCC[C@@H]3CCO[C@H]3[C@H](C)OC2=O)c1OCOC(C)=O` [Compound F143] was run?
Answer: The pest or weed control at 100 ppm was 0 to 80%.

Question: How did the pest or weed control at 100 ppm turn out when `COc1ccnc(C(=O)N[C@H]2CCC[C@H](CCSC)[C@@H](OCC(C)C)[C@H](C)OC2=O)c1OCOC(C)=O` [Compound F131] was run?
Answer: Its pest or weed control at 100 ppm is 80 to 100%.

Same assay, conditions: Zymoseptoria tritici, 72 h, 3 Day Curative, rate 121.5 g/H; read-out: SEPTTR 3 DC disease control

Question: For `COc1ccnc(C(=O)N[C@H]2CCC[C@H](CCOCC3CC3)[C@@H](OCC3CC3)[C@H](C)OC2=O)c1OCOC(C)=O` [Compound F140], which pest or weed control at 121.5 g/ha is on record?
Answer: Its pest or weed control at 121.5 g/ha is 0 to 80%.

Question: With `CCOCC(=O)OCOc1c(OC)ccnc1C(=O)N[C@H]1CCC[C@H](CCC(C)C)[C@@H](OCCCC(F)(F)F)[C@H](C)OC1=O` [Compound F162] as the molecule, how does the pest or weed control at 121.5 g/ha read?
Answer: Its pest or weed control at 121.5 g/ha is 80 to 100%.

Question: `COc1ccnc(C(=O)N[C@H]2CCC[C@H](CCSC)[C@@H](OCC(C)C)[C@H](C)OC2=O)c1OCOC(C)=O` [Compound F131] was tested. Which pest or weed control at 121.5 g/ha did it give?
Answer: The pest or weed control at 121.5 g/ha was 80 to 100%.
